This is an account of results in patent US20210393503A1, “ORGANIC COMPOUNDS” (GIVAUDAN SA, priority 2017, published 2021).

Where two headings read alike, the source gives them in different places.

For series [1], the system named is Reconstituted Human Oral Epithelium (RHO). Nature of the series: Re-epithelization after injury by TEER (trans epithelial electrical resistance). To be noted: 24 h after treatment; RHO injured with glass capillary; vs control not treated after injury; FIG. 1. The format is cell-based. The protocol: Experiments were performed on Reconstituted Human Oral Epithelium (RHO).
Immediately after the arrival in the laboratory, the RHO was removed from the agarose nutrient solution under a sterile airflow cabin. The inserts were rapidly placed in a 6-well plate previously filled with 1 ml of the maintenance medium at room temperature. The wells were placed in an incubator at 37° C., 5% CO2 and saturated humidity overnight.
On the next day, an injury was performed with a glass capillary.
The RHO samples were then treated with a solution containing hyaluronic acid having low (20-50 kDa), intermediate (100-300 kDa) or high (1,000-1,400 kDa) molecular weight. Untreated RHO was used as a control without treatment.
(§1) The RHO samples for this assessment were prepared according to the procedure of example 1.
24 h after the treatment with hyaluronic acid, the trans epithelial electric resistance (TEER) was measured as follows:
0.5 ml of physiological saline solution was directly applied on the tissue placed in a 6-well plate containing 5 ml of saline solution as well. The two electrodes of a Millicell-ERS Voltohmmeter (range 0-20 kΩ) were placed were placed in two compartments on either side of the tissue, such that the electric flux passed through the tissue. The result of the measurement directly appeared on the display. […]

For series [2] the test system is unchanged. Put plainly: Re-epithelization after injury by scanning electronic microscopy. Format: cell-based. As to conditions: T24h after injury; for tissue repair / wound recovery seen by SEM: low 0.5%, intermediate 0.2%, high 0.2%, magnification 10000x, FIGS. 4-6; for film forming on the tissue surface: high molecular weight 0.2%, FIG. 6. The protocol: Experiments were performed on Reconstituted Human Oral Epithelium (RHO). Immediately after the arrival in the laboratory, the RHO was removed from the agarose nutrient solution under a sterile airflow cabin. The inserts were rapidly placed in a 6-well plate previously filled with 1 ml of the maintenance medium at room temperature. The wells were placed in an incubator at 37° C., 5% CO2 and saturated humidity overnight. On the next day, an injury was performed with a glass capillary. The RHO samples were then treated with a solution containing hyaluronic acid having low (20-50 kDa), intermediate (100-300 kDa) or high (1,000-1,400 kDa) molecular weight. Untreated RHO was used as a control without treatment. The RHO samples for this assessment were prepared according to the procedure of example 1. 24 h after treatment with hyaluronic acid, the samples for scanning electronic microscopy (SEM) were immediately fixed by immersion in 2.5% glutaraldehyde in phosphate buffered saline (PBS) for 24 h, washing in 0.1 M sodium cacodylate buffer, pH 7.4, and then carried out in 1% osmium tetraoxide (OsO4) in the same buffer (2 h at room temperature). The samples were dehydrated in ascending grades of ethanol at room temperature and Hexamethyldisilazane overnight. The samples were placed on pins with carbon tabs, coated with a layer of gold using a Polaron Equipment limited SEM coating unit […], and then transferred to a SEM Zeiss Sigma Electron Microscope for viewing and photography. Magnification of 10000× was performed.

In series [3] the test system is Integrin beta 1 (ITGB1). Put plainly: Re-epithelization after injury by immunohistochemistry on Integrin B1. Format: cell-based, human. As to conditions: injured RHO, vs injured control, FIG. 7. How it is done:
as §1
At the end of the exposures (at least overnight), the tissue samples were fixed in buffered 10% formalin. Samples were included in paraffin blocks and sections of 5 μm were prepared. These slides were stained with Haematoxilin and Eosin.
The used technique allows for visualization of a specific protein or antigen in cells or tissue sections by binding a specific antibody chemically conjugated with a fluorescent dye. The indirect immunofluorescence staining is a procedure, in which a secondary antibody labelled with a fluorochrome is used to recognize a primary antibody. Immunofluorescence staining can be performed on cells fixed on slides and tissue sections. Immunofluorescence stained samples are examined under a fluorescence microscope or confocal microscope.
INTEGRIN (ITGB1): Mouse monoclonal antibody anti-Integrin beta 1 (Abcam, ab3167) diluted at 2 μg/ml for a 2 h incubation at room temperature in 1% BSA in PBS; and the secondary antibody in Alexa Fluor 488 goat anti-mouse (Invitrogen, A10680). The nuclei were stained with Dapi.
The slices were examined under a Leica DM 2500 FLUO microscope and analyzed by Leica LAS software.

Series [4] concerns Reconstituted Human Oral Epithelium (RHO) colonized with S. Aureus. Put plainly: Biofilm formation by TEER on colonized RHO. The format is cell-based. How it is done:
(§2) Immediately after the arrival in the laboratory, the RHO was removed from the agarose nutrient solution under a sterile airflow cabin. The inserts were rapidly placed in a 6-well plate previously filled with 1 ml of the maintenance medium […] at room temperature. The wells were placed in an incubator at 37° C., 5% CO2 and saturated humidity overnight.
(§3) The protocol was performed on duplicate tissues for bacterial burden and on single tissue for further morphological analysis (SEM, H&E).
(§4) S. aureus MRSA ATCC 33591 was thawed and cultured in nutrient broth at 37° C., under agitation.
(§5) 30 μL of intermediate molecular weight hyaluronic acid solution (0.2% w/v) or of chlorhexidine (CHL) 0.2% (positive control), respectively, were topically applied to RHO samples, and incubated for 24 h. Then, the product residual volume was removed by a micropipette from the epithelium surface.
The RHO samples were then colonized with S. Aureus bacterial suspensions (O.D. 0.1 about 10^6 UFC/tissue), which was applied topically for 4 h. After 4 h, the remaining S. aureus solution was removed and RHO tissue samples were incubated for 16 h at 37° C., 5% CO2. […]
TEER was measured as described hereafter: 0.5 ml of physiological saline solution was directly applied on the tissue placed in a 6-well plate containing 5 ml of saline solution as well. […]

Series [5] concerns S. aureus MRSA ATCC 33591. Nature of the series: Biofilm formation by bacterial count on colonized RHO. The format is cell-based, Staphylococcus aureus. The protocol: as §2, §3, §4, §5
(§6) The RHO samples were then colonized with S. Aureus bacterial suspensions (O.D. 0.1 about 10^6 UFC/tissue), which was applied topically for 4 h. After 4 h, the remaining S. aureus solution was removed and RHO tissue samples were incubated for 16 h at 37° C., 5% CO2.
The samples for this assessment were prepared according to the procedure of example 5.
In order to perform the bacterial count on apical, basolateral and homogenate compartments, the following procedure was used: • For the basolateral compartment: 1 ml of culture medium from each well was sampled. • For the apical compartment, the samples from the TEER measurement according to example 6 were used: Each sample contained 500 μl of physiological saline solution. These samples were moved to a new 6-well plate that had been previously filled with 2 ml/well of saline solution and put in a sonicator bath for 7 minutes at 40 kHz. After sonication, 500 μl of saline solution were sampled for the apical compartment and the RHO tissues were rinsed twice with 200 μl of saline solution. The total amount of solution (900 μl) was then pooled together to obtain the harvested apical compartment. • For the homogenate compartment: a sterile scalpel blade has been used to harvest tissues from the insert and to place them in an Eppendorf tube containing 500 μL of 0.5% Triton X-100 solution prepared in sterile distilled water for at least 10 minutes.
Bacterial counts of the three compartments were performed on Nutrient Agar plates, plating the appropriate 10-fold dilutions (from the not diluted to 10-7) of each compartment suspension (one 10 μl drop for each dilution). After 1 day of incubation at 37° C., the colonies were numbered visually.

For series [6], the system named is S. aureus MRSA ATCC 33591. Nature of the series: Biofilm visualization by scanning electronic microscopy. Format: cell-based, Staphylococcus aureus. As to conditions: 100-300 kDa, 0.2% w/v, colonization with S. Aureus, after 4 h. How it is done:
as §2, §3, §4, §5, §6
The samples for this experiment were prepared according to the procedure of example 5.
After treatment, samples for SEM were immediately fixed by immersion in 2.5% gluteraldehyde in PBS. […]

In series [7] the test system is ZO-1. Nature of the series: Re-epithelization after injury by immunohistochemistry on ZO-1. As to conditions: injured RHO, vs injured control; FIG. 7. The format is cell-based, human. The protocol: The RHO samples for this assessment were prepared according to the procedure of example 1. At the end of the exposures (at least overnight), the tissue samples were fixed in buffered 10% formalin. Samples were included in paraffin blocks and sections of 5 μm were prepared. These slides were stained with Haematoxilin and Eosin. The used technique allows for visualization of a specific protein or antigen in cells or tissue sections by binding a specific antibody chemically conjugated with a fluorescent dye. The indirect immunofluorescence staining is a procedure, in which a secondary antibody labelled with a fluorochrome is used to recognize a primary antibody. Immunofluorescence staining can be performed on cells fixed on slides and tissue sections. Immunofluorescence stained samples are examined under a fluorescence microscope or confocal microscope. […] ZO-1: Rabbit polyclonal antibody anti-ZO-1 (Invitrogen, 61-7300), diluted at 5 μg/ml for an overnight incubation at 4° C. in 1% bovine serum albumin (BSA) in PBS; and the secondary antibody in Alexa Fluor 555 donkey anti-rabbit (Invitrogen, A31572). The nuclei were stained with (4′,6-diamidino-2-phenylindole) (Dapi). The slices were examined under a Leica DM 2500 FLUO microscope and analyzed by Leica LAS software.

With “hyaluronic acid [intermediate molecular weight hyaluronic acid]”, in series [1], the “TEER (barrier function) after injury” value was “improved the barrier function after an injury”. Further, in series [2], the “tissue repair / wound recovery seen by SEM” value was “active process of tissue repair”. Further, the “Integrin beta 1 expression (immunofluorescence)” value in series [3] (listed as hyaluronic acid of intermediate molecular weight) is on record as “over-expression of integrin beta 1 exclusively”. The “TEER (barrier function) of colonized RHO” value in series [4] is reported as “did not affect TEER”. For the same compound, in series [5] (0.2% w/v applied 24 h before colonization with S. Aureus, FIG. 9), the “decrease of the bacterial count, apical compartment” value is “about 50%”. Moreover, in series [5] (0.2% w/v applied 24 h before colonization with S. Aureus, FIG. 10), the “decrease of the bacterial count, homogenate compartment” value is on record as “about 50%”. Also, the “total bacterial count (bacterial proliferation)” value in series [5] (summary of examples 5-9) is −50%. Also, the “polysaccharide matrix (biofilm formation) by SEM” value in series [6] (FIG. 13) is “No polysaccharide matrix is visible”. In addition, the “colonies in cluster by SEM” value in series [6] (FIG. 13 vs FIG. 12) was “less colonies are in cluster”.

As for `[H]/N=C(\N/C(=N/[H])NCCCCCCNC(=N)NC(=N)Nc1ccc(Cl)cc1)Nc1ccc(Cl)cc1` [CHL, chlorhexidine, reference compound], the “TEER (barrier function) of colonized RHO” value in series [4] (0.2% applied 24 h before colonization with S. Aureus for 4 h, then 16 h incubation, FIG. 8) is given as “TEER decreased”. In series [5] (0.2% applied 24 h before colonization with S. Aureus, FIGS. 9 and 10), the “bacterial count, result in words” value was “strong bactericidal property”.

As for “hyaluronic acid [high molecular weight hyaluronic acid]”, in series [2], the “film forming on the tissue surface” value was “film forming was observed” and the “tissue repair / wound recovery seen by SEM” value is given as “significantly less advanced”. In series [2] (listed as hyaluronic acid of high molecular weight), the “film forming on the tissue surface” value is listed as “forming a film on the skin surface”.

Regarding “hyaluronic acid [low molecular weight hyaluronic acid]”, the “TEER (barrier function) after injury” value in series [1] was “improved the barrier function after an injury”. In addition, the “tissue repair / wound recovery seen by SEM” value in series [2] is recorded as “led to a recovery of the wound”. Also, the “ZO-1 expression (immunofluorescence)” value in series [7] is given as “induced an over-expression”. Besides, the “Integrin beta 1 expression (immunofluorescence)” value in series [3] is on record as “induced an over-expression”.
